Consider two molecules from patent EP1477171A1, “Intestinal mineral absorption capacity improver” (Kao Corporation, priority 2003, dated 2004).

Data set [1] can be described thus: pH of a 2 mass% aqueous solution. In kind it is physicochemical.
Data set [2] deals with SD rats. In words: 45Ca level in blood plasma after oral 45Ca calcium chloride in rats fed the test diet for 10 days (intestinal calcium absorption capacity). In kind it is in vivo. The note with it: test diet (1.88 mass% in feed, 15 g/day, 10 days) vs control diet; 24 h fast; plasma 30 minutes, 1 hour and 2 hours after oral ^45Ca calcium chloride; Scheffe method, significant level less than 1%. As for the experimental part: Rats (8-week-old, male, SD rats), 10 rats consisting of one group, were each fed with 15 g/day of a control diet or a glucose 1-phosphate sodium salt diet as shown in Table 1 for 10 days. As the glucose 1-phosphate sodium salt, product of Solchem (Italy) was employed and the feed was adjusted to have a calcium concentration of 0.2 mass% and a P concentration of 0.4 mass%. The rats were allowed to take distilled water ad libitum.
After the rats were fasted for 24 hours, they were orally administered with 1.5 mL (containing ^45CalµCi), per average weight, of a 1 mg/mL calcium chloride solution containing ^45Ca singly. The blood plasma was obtained from about 0.5 mL of the blood collected from their carotid artery 30 minutes, 1 hour and 2 hours after administration. The ^45Ca level in 100 µL of the blood plasma was measured by a liquid scintillation counter.
A change in the ^45Ca level in 100 µL of the blood plasma separated from the […] 30 minutes, 1 hour and 2 hours after the administration of a ^45Ca-containing calcium chloride solution was statically analyzed by the Scheffe method. […]

The subject of data set [3] is SD rats. Kind of data set: duration of the intestinal calcium absorption capacity improving effect after feeding is terminated (45Ca level in plasma). The note with it: test diet 10 days, then control diet; for 3 days after termination; relative to the control group. In kind it is in vivo. An excerpt: As in Example 1, 15 g/day of a control diet and a test diet as shown in Table 1 were fed to groups of rats (8-week-old, male, SD rats), each group consisting of 8 rats, for 10 days, respectively. The rat groups fed with the test diet were divided into three groups and as the feed after 10 days, the control diet was fed to each group and feeding of the glucose 1-phosphate sodium salt was terminated. The termination period was 1 day, 3 days and 7 days. The ^45Ca level in the blood plasma after completion of the feeding period was measured in accordance with the method of Example 1.

For the molecule `O=P(O)(O)OC1O[C@H](CO)[C@@H](O)[C@H](O)[C@H]1O` (stereo partly shown) [Glucose-1-phosphoric acid, reference compound], the “pH of a 2 mass% aqueous solution” value in data set [1] was 1.5.

With glucose 1-phosphate sodium salt, the “^45Ca level in the blood plasma” value in the data set with SD rats [2] is “statistically significant increase”. The “^45Ca level in the plasma after feeding was terminated” value in the data set with SD rats [3] was “significant increase”. Besides, the “pH of a 2 mass% aqueous solution” value in data set [1] is “about 8.0”.
